# Target: Ubiquitin-conjugating enzyme E2 N (Homo sapiens) (UniProt P61088)
# Test: concentration-dependent UBC13 chain formation blockade – biochemical, TR-FRET, reconfirmation, dose response (AID 493182)
# Conditions: UBC13 polyubiquitination
# Ubiquitin-conjugating enzyme E2 N (Homo sapiens), sequence (P61088 whole entry, looked up): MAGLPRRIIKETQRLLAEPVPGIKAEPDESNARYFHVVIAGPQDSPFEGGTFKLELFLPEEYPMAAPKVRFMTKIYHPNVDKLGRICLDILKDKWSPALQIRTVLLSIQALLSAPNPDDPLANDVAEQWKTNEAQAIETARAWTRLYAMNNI
row,Compound,IC50 [µM]
1,CCC[C@@H](CN1CCC[C@H]1CN1C(N)=NC[C@H]1CC(C)C)N1C[C@@H](Cc2ccccc2)N(CCc2ccc(Cl)c(Cl)c2)C1=N,12.6
2,N#Cc1ccc(OCC(=O)NNC(=S)NC(=O)C2CC2)cc1,6.43
3,C#CCOCCOCCOCCNc1nc(N2CCN(C(=O)CCCCCCCCCCNC(=O)[C@H](CCCCN)n3cc(CCO)nn3)CC2)nc(N2CCN(C(=O)CCCCCCCCCCNC(=O)[C@H](CCCCN)n3cc(CCO)nn3)CC2)n1,4.73
4,C#CCOCCOCCOCCNc1nc(N2CCN(C(=O)C([C@@H](C)O)n3cc([C@@H](N)CCCCN)nn3)CC2)nc(N2CCN(C(=O)[C@H](CCCCN)n3cc(CN)nn3)CC2)n1 (some centres not stated),3.71
5,O=C(CSc1nc2ccsc2c(=O)n1Cc1ccc(C(=O)O)cc1)NCC1CCCO1 (configuration not stated),17.3
6,Cc1ccc(N(C(=O)c2snc(C(N)=O)c2N)C(C(=O)NCC2CCCO2)c2c[nH]c3ccccc23)cc1 (configuration not stated),12.1
7,CCCCCCCCCCC[N+](C)(C)CC/C=C1/c2ccccc2Sc2ccc(Cl)cc21,4.77

# Source: PubChem BioAssay AID493182 (Sanford-Burnham Center for Chemical Genomics, 2011)
